Measured values as given in US20060234944A1, “Beta-secretase inhibitors and methods of use” (Oklahoma Medical Reseach Foundation, priority 2001, published 2006).

Molecular target: T1, memapsin 2 (Homo sapiens, UniProt P56817)
T1 construct: made in house; host or cells: E. coli
Assay: Inhibition of memapsin 2 cleavage of fluorogenic substrate FS-2 (Ki, Ki apparent, Vi/Vo, % inhibition)
Assay type: biochemical
Details: for Ki: Table 1, apparent Ki in presence of substrate FS-2, N.I. = no inhibition, read-out: Ki app; for % Inh (M1/M2): Table 9, ratio of % inhibition memapsin 1 / memapsin 2, 1 or less = greater inhibition of memapsin 2
Procedure: Ki is the inhibition equilibrium constant which indicates the ability of compounds to inhibit the β-secretase activity of memapsin 2 and memapsin 1. […] The K1 value is independent of the substrate, and converted from Ki apparent.
The Vi/Vo values depicted in Table 1 were determined at conditions under which the enzyme and inhibitor concentrations were equal (e.g., about 80 nM, 100 nM).
The relationship of Ki (independent of substrate concentration) to Kiapp is a function of substrate concentration in the assay and the Km for cleavage of the substrate by either memapsin 1 or memapsin 2 by the relationship: Kiapp=Ki(1+[S]/Km).
Ki is the inhibition equilibrium constant which indicates the ability of compounds to inhibit the β-secretase activity of memapsin 2 and memapsin 1. […] The Ki value is independent of the substrate, and converted from Ki apparent.
An aliquot of the inhibitor of known concentration in DMSO was diluted into 1.8 ml 0.1 M NaOAc, pH 4.0. DMSO and added to a final concentration of 10% (v/v), and memapsin 2 (final concentration of 80 nM), followed by a 20 minute equilibration at 37° C. Compounds were evaluated for the ability to inhibit memapsin 1 and memapsin 2 at concentrations between about 10 nM and about 10 μm of inhibitor.
The relationship of Ki (independent of substrate concentration) to Kiapp is a function of substrate concentration in the assay and the Km for cleavage of the substrate by either memapsin 1 or memapsin 2 by the relationship: Kiapp=Ki (1+[S]/Km).

T1 sequence (P56817 41-454): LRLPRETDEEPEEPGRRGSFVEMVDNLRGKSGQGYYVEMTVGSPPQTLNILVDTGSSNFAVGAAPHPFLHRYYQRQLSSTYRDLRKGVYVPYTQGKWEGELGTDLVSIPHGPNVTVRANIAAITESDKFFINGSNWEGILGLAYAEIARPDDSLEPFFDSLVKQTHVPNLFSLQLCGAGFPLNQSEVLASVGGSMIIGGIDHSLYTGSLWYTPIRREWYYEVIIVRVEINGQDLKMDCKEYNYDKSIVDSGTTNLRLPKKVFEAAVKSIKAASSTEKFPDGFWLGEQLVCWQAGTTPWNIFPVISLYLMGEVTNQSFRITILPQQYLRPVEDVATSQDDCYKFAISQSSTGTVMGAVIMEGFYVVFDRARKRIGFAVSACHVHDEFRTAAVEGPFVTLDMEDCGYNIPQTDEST

Compound	Ki [µM]	further results
CC(C)C[C@H](NC(=O)OC(C)(C)C)[C@@H](O)C[C@@H](C)C(=O)N[C@@H](C)C(=O)NCc1ccccc1 [MMI-001]	3740	–
CSCC[C@H](NC(=O)[C@H](C)NC(=O)[C@H](C)C[C@H](O)[C@H](CC(C)C)NC(=O)OC(C)(C)C)C(=O)NCc1ccccc1 [MMI-002]	431	–
CC(C)C[C@H](NC(=O)OC(C)(C)C)[C@@H](O)C[C@@H](C)C(=O)N[C@@H](C)C(=O)N[C@@H](CCS(C)(=O)=O)C(=O)NCc1ccccc1 [MMI-003]	2620	–
CSCC[C@H](NC(=O)[C@@H](NC(=O)OC(C)(C)C)C(C)C)C(=O)N[C@@H](CC(C)C)[C@@H](O)C[C@@H](C)C(=O)N[C@H]1c2ccccc2C[C@H]1O [MMI-046]	150	–
CC(C)C[C@H](NC(=O)[C@H](CCS(C)(=O)=O)NC(=O)[C@@H](NC(=O)OC(C)(C)C)C(C)C)[C@@H](O)C[C@@H](C)C(=O)N[C@H]1c2ccccc2C[C@H]1O [MMI-047]	111	–
CC(C)C[C@H](NC(=O)[C@H](CCO)NC(=O)c1cnc2ccccc2c1)[C@@H](O)C[C@@H](C)C(=O)N[C@H](C(=O)N[C@H]1c2ccccc2C[C@H]1O)C(C)C [MMI-049]	198	–
CCC(C)[C@H](NC(=O)[C@H](C)C[C@H](O)[C@H](CC(C)C)NC(=O)[C@H](CCO)NC(=O)c1cnc2ccccc2c1)C(=O)N[C@H]1c2ccccc2C[C@H]1O (stereo partly shown) [MMI-050]	146	–
CC(C)C[C@H](NC(=O)[C@H](CCS(C)(=O)=O)NC(=O)[C@@H](NC(=O)OC(C)(C)C)C(C)C)[C@@H](O)C[C@@H](C)C(=O)N[C@@H]1c2ccccc2C[C@@H]1O [MMI-054]	469	–
CSCC[C@H](NC(=O)[C@@H](NC(=O)OC(C)(C)C)C(C)C)C(=O)N[C@@H](CC(C)C)[C@@H](O)C[C@@H](C)C(=O)N[C@H]1CCCC[C@@H]1O [MMI-055]	631	–
CC(C)C[C@H](NC(=O)[C@H](CCS(C)(=O)=O)NC(=O)[C@@H](NC(=O)OC(C)(C)C)C(C)C)[C@@H](O)C[C@@H](C)C(=O)N[C@@H]1CCCC[C@@H]1O [MMI-058]	408	–
CC(C)C[C@H](NC(=O)[C@H](CCS(C)(=O)=O)NC(=O)[C@@H](NC(=O)OC(C)(C)C)C(C)C)[C@@H](O)C[C@@H](C)C(=O)N[C@@H]1CCCC[C@@H]1O [MMI-060]	101	–
CSCC[C@H](NC(=O)[C@@H](NC(=O)OC(C)(C)C)C(C)C)C(=O)N[C@@H](CC(C)C)[C@@H](O)CN(C)C(=O)[C@H](NC(=O)OCc1ccccc1)C(C)C [MMI-061]	15500	–
CC(C)C[C@H](NC(=O)[C@H](CCS(C)(=O)=O)NC(=O)[C@@H](NC(=O)OC(C)(C)C)C(C)C)[C@@H](O)C[C@@H](C)C(=O)N[C@@H](C(=O)NCc1ccccc1)[C@@H](C)O [MMI-073]	–	% Inh (M1/M2): 0.73
CSCC[C@H](NC(=O)[C@@H](NC(=O)OC(C)(C)C)C(C)C)C(=O)N[C@@H](CC(C)C)[C@@H](O)C[C@@H](CO)C(=O)N[C@H](C(=O)NCc1ccccc1)C(C)C [MMI-078]	–	% Inh (M1/M2) (listed as 78): 0.76
Cc1c(O)cccc1C(=O)N[C@@H](C(C)C)[C@@H](O)N[C@@H](CCS(C)(=O)=O)C(=O)N[C@@H](CC(C)C)[C@@H](O)C[C@@H](C)C(=O)N[C@@H](CC(C)C)C(=O)NCc1ccccc1 [MMI-122]	–	Vi/Vo (ratio of initial cleavage velocities of FS-2 with/without compound, enzyme and inhibitor concentrations equal (e.g., about 80 nM, 100 nM)): 1.17
CSCC[C@H](NC(=O)[C@@H](NC(=O)OC(C)(C)C)C(C)C)C(=O)N[C@@H](CC(C)C)[C@@H](O)C[C@@H](C)C(=O)N[C@@H](C(C)C)C1CCCCO1 (stereo partly shown) [MMI-130]	110	–
CSCC[C@H](NC(=O)[C@@H](NC(=O)OC(C)(C)C)C(C)C)C(=O)N[C@@H](CC(C)C)[C@@H](O)C[C@@H](CO)C(=O)N[C@H](C(=O)NCc1ccccc1)C(C)C [MMI-132]	–	% Inh (M1/M2): 1.30
Cc1cc(C)n(COC(=O)N[C@@H](CCS(C)(=O)=O)C(=O)N[C@@H](CC(C)C)[C@@H](O)C[C@@H](C)C(=O)N[C@H](C(=O)NCc2ccccc2)C(C)C)n1 [MMI-139]	–	% Inh (M1/M2): 0
CSCC[C@H](NC(=O)OCn1nc(C)cc1C)C(=O)N[C@@H](CC(C)C)[C@@H](O)C[C@@H](C)C(=O)N[C@H](C(=O)NCC(C)C)C(C)C [MMI-156]	–	% Inh (M1/M2): 0.47
